Test results published in patent US20240262842A1, “SMALL MOLECULE INHIBITORS OF KRAS G12C MUTANT” (Merck Sharp & Dohme LLC, priority 2021, published 2024).

How the values were obtained:
[1] = target: T1, interaction between GMPPNP-bound recombinant K-Ras4B G12C mutant protein and cRAF RAS-binding domain (cRAF-RBD) (Homo sapiens, UniProt P01116, G12C); experiment: Inhibitory activity on interaction between KRAS G12C and cRAF (Alpha technology); details: GMPPNP-bound KRAS G12C incubated with compound 25° C. 1 hour; Table 2-1; read-out: IC50
T1 construct: His-tag (N)
T1 sequence (P01116 with tags, fused parts or gaps isoform P01116-2 G12C): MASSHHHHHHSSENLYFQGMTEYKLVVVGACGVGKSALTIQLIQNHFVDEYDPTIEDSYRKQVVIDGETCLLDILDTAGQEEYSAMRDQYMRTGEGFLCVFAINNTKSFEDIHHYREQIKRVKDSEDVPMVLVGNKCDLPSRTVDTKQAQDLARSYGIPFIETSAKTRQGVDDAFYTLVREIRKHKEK
Method in brief: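 Alpha signal measured 1.5 h after adding cRAF-RBD (aa 50-132) and detection reagents to GMPPNP-bound KRAS G12C (aa 1-169) pretreated 1 h at 25° C with compound (pH 7.5 buffer). 0% inhibition = DMSO, 100% = GDP-loaded KRAS; IC50 by curve fit.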

[2] = test system: MIA PaCa-2 cells; experiment: Growth inhibition activity on KRAS-G12C mutant cell line (CellTiter-Glo 3D); format: cell-based, human; details: Homo sapiens, MIA PaCa-2, 72 h, MIA PaCa-2, 3-day culture with compound; Table 3-1
Method in brief: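 IC50 (nM) derived from inhibition of luminescence (CellTiter-Glo 3D) relative to compound-free wells. Cells were seeded in U-bottom plates, grown 1 day, then exposed to compound for 3 days at 37 °C with 0.2% final DMSO.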

Row | IC50 [1] [nM] | IC50 [2] [nM] | Compound
1 | 8.06 | 10.3 | Cn1cnc2c3c(c(C(F)(F)F)cc21)-c1cccn2c(C(=O)c4cc(F)c(NC(=O)/C=C/CN[C@@H]5[C@@H]6COC[C@@H]65)c(F)c4)cc(c12)CCO3 [Example 156, (E)-4-(((1R,5S,6s)-3-oxabicyclo[3.1.0]hexan-6-yl)amino)-N-(2,6-difluoro-4-(9-methyl-7-(trifluoromethyl)-13,14-dihydro-9H-imidazo-[4″,5″:5′,6′]benzo[1′,2′: 2,3]oxocino[4,5,6-hi]-indolizine-2-carbonyl)-phenyl)but-2-enamide]
2 | 67.6 | 62.1 | CN1CCc2nc(C(=O)c3cc(F)c(NC(=O)C=CCNC4(C)COC4)c(F)c3)n3cccc(c23)-c2c(C(F)(F)F)cc3c(ncn3C)c21 [Example 157, (E)-N-(4-(8,11-dimethyl-6-(trifluoromethyl)-8,11,12,13-tetrahydro-1,2a,8,10,11-pentaaza-cycloocta[1,2,3-cd:5,4-e′]-diindene-2-carbonyl)-2,6-difluorophenyl)-4-((3-methyloxetan-3-yl)-amino)but-2-enamide]
3 | 77.6 | 95.4 | COCc1nc2c3c(c(C(F)(F)F)cc2n1C)-c1cccn2c(C(=O)c4cc(F)c(NC(=O)/C=C/CN[C@H]5CCOC5)c(F)c4)cc(c12)C(=O)N(C)C3 [Example 158, (S,E)-N-(2,6-difluoro-4-(10-(methoxymethyl)-9,13-dimethyl-14-oxo-7-(trifluoromethyl)-9,12,13,14-tetrahydroimidazo[4″,5″:3′,4′]benzo[1′,2′:6,7]azocino[5,4,3-hi]indolizine-2-carbonyl)phenyl)-4-((tetrahydrofuran-3-yl)amino)but-2-enamide]
4 | 63.2 | 21.6 | Cn1cnc2c3c(c(C(F)(F)F)cc21)-c1cccn2c(C(=O)c4cc(F)c(NC(=O)/C=C/CN5CCC5)c(F)c4)cc(c12)CCO3 [Example 161, (E)-4-(azetidin-1-yl)-N-(2,6-difluoro-4-(9-methyl-7-(trifluoromethyl)-13,14-dihydro-9H-imidazo-[4″,5″:5′,6′]benzo[1′,2′: 2,3]oxocino[4,5,6-hi]-indolizine-2-carbonyl)-phenyl)but-2-enamide]
5 | 22.4 | 15.2 | Cn1cnc2c3c(c(C(F)(F)F)cc21)-c1cccn2c(C(=O)c4cc(F)c(NC(=O)/C=C/CN5CC[C@H]5C(C)(C)O)c(F)c4)cc(c12)CCO3 [Example 162, (S,E)-N-(2,6-difluoro-4-(9-methyl-7-(trifluoro-methyl)-13,14-dihydro-9H-imidazo[4″,5″:5′,6′]-benzo[1′,2′:2,3]oxocino-[4,5,6-hi]indolizine-2-carbonyl)phenyl)-4-(2-(2-hydroxypropan-2-yl)-azetidin-1-yl)but-2-enamide]
6 | 3.75 | 5.44 | Cn1cnc2c3c(c(C(F)(F)F)cc21)-c1cccn2c(C(=O)c4cc(F)c(NC(=O)/C=C/CN5CC[C@H]5CO)c(F)c4)cc(c12)CCO3 [Example 165, (S,E)-N-(2,6-difluoro-4-(9-methyl-7-(trifluoro-methyl)-13,14-dihydro-9H-imidazo[4″,5″:5′,6′]-benzo[1′,2′:2,3]oxocino-[4,5,6-hi]indolizine-2-carbonyl)phenyl)-4-(2-(hydroxymethyl)azetidin-1-yl)but-2-enamide]
7 | 33.7 | 51.2 | CN1CCc2cc(C(=O)c3cc(F)c(NC(=O)/C=C/CN[C@H]4CCOC4)c(F)c3)n3cccc(c23)-c2c(C(F)(F)F)cc3c(ncn3C3CC3)c21 [Example 166, (S,E)-N-(4-(9-cycloprop-yl-12-methyl-7-(trifluoro-methyl)-9,12,13,14-tetra-hydroimidazo[4″,5″:5′,6′]-benzo[1′,2′:2,3]azocino-[4,5,6-hi]indolizine-2-carbonyl)-2,6-difluoro-phenyl)-4-((tetrahydro-furan-3-yl)amino)but-2-enamide]
8 | 59.6 | 15 | COC[C@@H]1CCN1C/C=C/C(=O)Nc1c(F)cc(C(=O)c2cc3c4c(cccn24)-c2c(C(F)(F)F)cc4c(ncn4C)c2OCC3)cc1F [Example 169, (S,E)-N-(2,6-difluoro-4-(9-methyl-7-(trifluoro-methyl)-13,14-dihydro-9H-imidazo[4″,5″:5′,6′]-benzo[1′,2′:2,3]oxocino-[4,5,6-hi]indolizine-2-carbonyl)phenyl)-4-(2-(methoxymethyl)azetidin-1-yl)but-2-enamide]
9 | 7.41 | 7.45 | COCc1nc2c3c(c(OC)cc2n1C)-c1cccn2c(C(=O)c4cc(F)c(NC(=O)/C=C/CNC5(C)CC5)c(F)c4)cc(c12)CCN3C [Example 174, (E)-N-(2,6-difluoro-4-(7-methoxy-10-(methoxymethyl)-9,12-dimethyl-9,12,13,14-tetrahydroimidazo[4″,5″:5′,6′]benzo[1′,2′:2,3]azocino[4,5,6-hi]indolizine-2-carbonyl)phenyl)-4-((1-methylcyclopropyl)amino)but-2-enamide]
10 | 90.4 | 23.3 | Cn1cnc2c3c(c(C(F)(F)F)cc21)-c1cccn2c(C(=O)c4cc(F)c(NC(=O)/C=C/CN5CC[C@H]5CF)c(F)c4)cc(c12)CCO3 [Example 175, (S,E)-N-(2,6-difluoro-4-(9-methyl-7-(trifluoro-methyl)-13,14-dihydro-9H-imidazo[4″,5″:5′,6′]-benzo[1′,2′:2,3]oxocino-[4,5,6-hi]indolizine-2-carbonyl)phenyl)-4-(2-(fluoromethyl)azetidin-1-yl)but-2-enamide]
11 | 40.8 | 75.7 | COCc1nc2c3c(c(C(F)(F)F)cc2n1C)-c1cccn2c(C(=O)c4cc(F)c(NC(=O)/C=C/CNC5(C)CC5)c(F)c4)nc(c12)CCN3C [Example 185, (E)-N-(2,6-difluoro-4-(9-(methoxymethyl)-8,11-dimethyl-6-(trifluorometh-yl)-8,11,12,13-tetrahydro-1,2a,8,10,11-pentaaza-cycloocta[1,2,3-cd:5,4-e′]diindene-2-carbonyl)-phenyl)-4-((1-methyl-cyclopropyl)amino)but-2-enamide]
12 | 36.4 | 39 | Cc1cnc2c3c(c(C(F)(F)F)cn12)-c1cccn2c(C(=O)c4cc(F)c(NC(=O)/C=C/CNC5(C)COC5)c(F)c4)cc(c12)CCN3C [Example 187, (E)-N-(4-(10,13-dimethyl-7-(trifluoromethyl)-14,15-dihydro-13H-imidazo[1″,2″:1′,2′]pyrido[3′,4′:2,3]azocino[4,5,6-hi]indolizine-2-carbonyl)-2,6-difluorophenyl)-4-((3-methyloxetan-3-yl)amino)but-2-enamide]
13 | 15.2 | 6.1 | Cn1cnc2c3c(c(C(F)(F)F)cc21)-c1cccn2c(C(=O)c4cc(F)c(NC(=O)/C=C/CN5C[C@@H]6C[C@H]5CO6)c(F)c4)cc(c12)CCO3 [Example 189, (E)-4-((1S,4S)-2-oxa-5-azabicyclo[2.2.1]heptan-5-yl)-N-(2,6-difluoro-4-(9-methyl-7-(trifluoro-methyl)-13,14-dihydro-9H-imidazo[4″,5″:5′,6′]-benzo[1′,2′:2,3]oxocino-[4,5,6-hi]indolizine-2-carbonyl)phenyl)but-2-enamide]
14 | 10.3 | 9.08 | Cn1cnc2c3c(c(C(F)(F)F)cc21)-c1cccn2c(C(=O)c4cc(F)c(NC(=O)/C=C/CN5C[C@H]6C[C@@H]5CO6)c(F)c4)cc(c12)CCO3 [Example 190, (E)-4-((1R,4R)-2-oxa-5-azabicyclo[2.2.1]heptan-5-yl)-N-(2,6-difluoro-4-(9-methyl-7-(trifluoro-methyl)-13,14-dihydro-9H-imidazo[4″,5″:5′,6′]-benzo[1′,2′:2,3]oxocino-[4,5,6-hi]indolizine-2-carbonyl)phenyl)but-2-enamide]
15 | 97.1 | 167 | COc1cc(N2CCCC2=O)cc2c1-c1cccn3c(C(=O)c4cc(F)c(NC(=O)/C=C/CN[C@H]5CCOC5)c(F)c4)cc(c13)CCN2C [Example 191, (S,E)-N-(2,6-difluoro-4-(9-methoxy-5-methyl-7-(2-oxopyrrolidin-1-yl)-4,5-dihydro-3H-benzo-[2,3]azocino[4,5,6-hi]-indolizine-1-carbonyl)-phenyl)-4-((tetrahydro-furan-3-yl)amino)but-2-enamide]
16 | 91.5 | 24.3 | CC(=O)NC[C@@H]1CCN1C/C=C/C(=O)Nc1c(F)cc(C(=O)c2cc3c4c(cccn24)-c2c(C(F)(F)F)cc4c(ncn4C)c2OCC3)cc1F [Example 192, (S,E)-4-(2-(acetamido-methyl)azetidin-1-yl)-N-(2,6-difluoro-4-(9-meth-yl-7-(trifluoromethyl)-13,14-dihydro-9H-imidazo[4″,5″:5′,6′]benzo-[1′,2′:2,3]oxocino[4,5,6-hi]indolizine-2-carbonyl)-phenyl)but-2-enamide]
17 | 39.6 | 69.5 | Cn1cnc2c3c(c(C(F)(F)F)cc21)-c1cccn2c(C(=O)c4cc(F)c(NC(=O)/C=C/CN5CCCOCC5)c(F)c4)cc(c12)CCO3 [Example 193, (E)-N-(2,6-difluoro-4-(9-methyl-7-(trifluorometh-yl)-13,14-dihydro-9H-imidazo[4″,5″:5′,6′]benzo-[1′,2′:2,3]oxocino[4,5,6-hi]indolizine-2-carbonyl)-phenyl)-4-(1,4-oxazepan-4-yl)but-2-enamide]
18 | 10.3 | 6.38 | COc1cc2c(nc(C)n2C)c2c1-c1cccn3c(C(=O)c4cc(F)c(NC(=O)/C=C/CNC5(C)CC5)c(F)c4)cc(c13)CCO2 [Example 194]
